Starred links: 1 amine or outer side, 2 acyl side, 3 side chain; linkers in the order of their positions; H or OH if unused. Positions of bridges follow the written chain, without caps; N, C: chain ends. Non-standard residues stand in square brackets, D forms with d. Residues, ends and D or L forms follow the SMILES beside them. dPen = CC(C)(S)[C@@H](N)C(=O)O; Pen = CC(C)(S)[C@H](N)C(=O)O; CH2CH2 = C(C[*:2])[*:1]
Columns and labels:
[1] = biological target: Mu-type opioid receptor (Cavia porcellus, UniProt P97266); assay: Binding affinity against mu opioid receptor
Chain of Mu-type opioid receptor (P97266 whole entry): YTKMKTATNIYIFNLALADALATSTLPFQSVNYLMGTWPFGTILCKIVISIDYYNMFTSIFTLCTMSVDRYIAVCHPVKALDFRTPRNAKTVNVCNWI

[2] = biological target: Opioid receptors; mu/kappa/delta (Homo sapiens, UniProt P41145+P41143+P35372); assay: Agonistic activity tested in vitro in guinea pig ileum opioid; format: functional, tissue-based, Cavia porcellus; settings: target entry is the homologue from another species
[3] = Binding affinity against Opioid receptor delta 1

CC1(C)SCCSC[C@@H](NC(=O)[C@@H](N)Cc2ccccc2)C(=O)N[C@@H](Cc2ccccc2)C(=O)N[C@H]1C(N)=O
Ki [1]: 1360 pM | IC50 [2]: 9100 pM

CC1(C)SSC[C@@H](NC(=O)[C@@H](N)Cc2ccccc2)C(=O)N[C@@H](Cc2ccccc2)C(=O)N[C@H]1C(=O)O
Ki [1]: 610000 pM

CC1(C)SSC[C@H](NC(=O)[C@@H](N)Cc2ccc(O)cc2)C(=O)N[C@@H](Cc2ccccc2)C(=O)N[C@@H]1C(=O)O (H-YCF[Pen]-OH; disulfide 2-4)
Ki [3]: 740 pM

CC1(C)SCCSC[C@@H](NC(=O)[C@@H](N)Cc2ccc(O)cc2)C(=O)N[C@@H](Cc2ccccc2)C(=O)N[C@H]1C(N)=O (H-Y[dC]F[dPen]-NH2; linker 2-4 via CH2CH2)
Ki [1]: 290 pM

C[C@@H](NC(=O)[C@@H](N)Cc1ccc(O)cc1)C(=O)NCC(=O)N(C)[C@@H](Cc1ccccc1)C(=O)NCCO [DAMGO]
Ki [1]: 990 pM
